Patent US20020098210A1, “FORMULATIONS AND METHODS FOR REDUCING SKIN IRRITATION” (priority 1997, published 2002)
Where two headings read alike, the source gives them in different places.

Key:
[1] = tested on: lactic acid skin irritation; experiment: Lactic acid irritation trial, time zero test (anti-irritant applied simultaneously with irritant); format: in vivo, human; details: time zero tests; for Percent Inhibition (average inhibition of cumulative irritation): cation salt 250 mM, lactic acid irritant, average over trials; for Percent Inhibition: representative panels, 250 mM, vehicle 10% EtOH
Source text: (§1) The following scaled scores were used for sensory assessment: […]

[2] = tested on: skin irritation induced by topical irritants (lactic acid, glycolic acid, capryloyl salicylic acid, benzoyl peroxide); experiment: Human clinical trials of anti-irritant activity (general statements); format: in vivo; details: topical application
Description: The objective of the clinical trials was to determine whether and to what extent topical formulations of the calcium cation reduced or prevented skin irritation caused by certain severe skin irritants, including particularly lactic acid and glycolic acid (which are hydroxy acids), capryloyl salicylic acid (a β-hydroxy acid ester) and capsaicin (an isolate from cayenne and paprika known for its skin-irritating properties). The trials were conducted in a double blind, randomized, vehicle-controlled manner. Various formulations of the invention were tested in over 460 people.

[3] = tested on: lactic acid skin irritation; experiment: Lactic acid irritation trial, pretreatment test (anti-irritant applied 15 minutes prior to irritant); format: in vivo, human; details: for Percent Inhibition (average inhibition of cumulative irritation) / Percent Inhibition: pretreatment tests; for Percent Inhibition (average inhibition of cumulative irritation): cation salt 250 mM, lactic acid irritant, average over trials; for Percent Inhibition: representative panels, 250 mM, vehicle Visible Difference; for inhibition of skin irritation (in words): salts in Elizabeth Arden Visible Difference Refining Toner, various amounts
Source text: as §1

[4] = tested on: lactic acid skin irritation
Description: Tests were conducted in multiple panels of from 7 to 12 subjects each. Subjects were instructed not to wear any makeup or facial lotions to the clinic the day of testing. The subjects were instructed to wash their face with Ivory bar soap in the clinic prior to application of test solutions.
Lactic acid skin-irritant compositions were formulated in an appropriate vehicle prior to application to the skin of the subjects.
Controls were performed by applying corresponding formulation(s) (pretreatment and/or skin-irritant composition) with an equimolar amount of sodium chloride to a contralateral portion of the subject's skin. Typically, the test materials were applied to the face of the subject.
All test solutions (including controls) were applied in a double blind, randomized fashion using the prepared solutions as previously placed in coded vial designated for use on either the right or left side of the face (or other test area). Solutions were typically applied using a cotton swab (six strokes) or sponge applicator to the face and cheek area extending from the midline of the nose over to the center of the cheek and from the cheek bone down to the jaw line. Application was made first to the right side and then to the left.
Sensory assessment scores were recorded for each treated side of the subject's skin every minute for 15 minutes or until three consecutive scores of “zero” irritation were obtained. The following scaled scores were used for sensory assessment:
Symptom scores were cumulated, separately for the cation-treated and control-treated areas, for each individual and also for the panel as a whole. Individuals not reporting a cumulative score of at least “7” on at least one treatment area were excluded (in a blinded fashion) from further analysis in order to ascertain anti-irritant efficacy with respect to the more severely-susceptible test subjects. From a practical standpoint, scores of “0” and “1” on the above scale would be considered highly desirable for a commercial product because such a response would likely not result in a consumer ceasing to use a product.

Row | Molecule | Percent Inhibition (average inhibition of cumulative irritation) [1] [%] | Percent Inhibition [1] [%] | anti-irritant activity (in words) [2] | Percent Inhibition (average inhibition of cumulative irritation) [3] [%] | Percent Inhibition [3] [%] | inhibition of skin irritation (in words) [3] | Percent Inhibition (cumulative irritation inhibition) ([4]; calcium nitrate 31 mM) [%] | Percent Inhibition (cumulative irritation inhibition) ([4]; calcium nitrate 62 mM) [%] | Percent Inhibition (cumulative irritation inhibition) ([4]; calcium nitrate 125 mM) [%] | Percent Inhibition (cumulative irritation inhibition) ([4]; calcium nitrate 250 mM) [%] | Percent Inhibition (cumulative irritation inhibition) ([4]; calcium nitrate 500 mM) [%] | anti-irritant activity (in words) ([2]; listed as calcium(II) (Ca^2+))
1 | O=[N+]([O-])[O-].O=[N+]([O-])[O-].[Ca+2] [Calcium nitrate] | 90 | 85 | particularly active as anti-irritants | 45 | 44 | effective to inhibit skin irritation | 26 | 52 | 83 | 82 | 67 | –
2 | Calcium gluconate | 40 | 49 | particularly active as anti-irritants | – | 40 | – | – | – | – | – | – | –
3 | [Ca+2] [calcium cation, calcium(II)] | – | – | significant and reproducible anti-irritant effects | – | – | – | – | – | – | – | – | effective
4 | CC(=O)[O-].CC(=O)[O-].[Ca+2] [Calcium acetate] | 60 | 65 | particularly active as anti-irritants | 40 | 30 | effective to inhibit skin irritation | – | – | – | – | – | –
5 | [Ca+2].[Cl-].[Cl-] [Calcium chloride] | 65 | 61 | particularly active as anti-irritants | 35 | 35 | effective to inhibit skin irritation | – | – | – | – | – | –
